The assay concerns 171881-019-R-J1-PDC tumor spheroids, viability. Description: Anticancer human tumor 171881-019-R-J1-PDC patient-derived invasive breast carcinoma cell line growth inhibition [GQUAD]. The conditions noted are these: spheroids with HUVEC and MSC; for viability, T/C: stronger effect = lower value. An excerpt: DNA G-quadruplex Stabilizer Agents in Combinations in Complex Spheroids
A high-throughput screen of multi-cell type tumor spheroids was designed to identify active combinations of DNA G-quadruplex stabilizer agents and targeted small molecules. Complex spheroids include a stromal component modeled by human endothelial cells (HUVEC) and fibroblasts modeled by human mesenchymal stem cells (MSCs). The concentration ranges selected for each drug and investigational agent were based upon clinically achievable concentrations if the clinical Cmax of the agent was known.
Compounds. The drugs and investigational agents: pidnarulex (CX-5461; NSC782164), APTO-253 (NSC789042), BRACO-19 (NSC847499), peposertib (NSC802822), ceralasertib (NSC780249), elimusertib (NSC800525), camonsertib (NSC841442), AZD-1390 (NSC803789), olaparib (NSC753686), talazoparib (NSC767125), ART-558 (NSC835418), sotorasib (NSC818433), MRTX-1133 (NSC836407), SN-38 (NSC673596), topotecan (NSC609699), etoposide (NSC141540), doxorubicin (NSC123127), gemcitabine (NSC613327), 5-fluorouracil (NSC19893), paclitaxel (NSC125973), vemurafenib (NSC761431), panobinostat (NSC761190), R-306465 (JNJ-16241199; NSC773264), adavosertib (NSC754352), TP-3654 (NSC805149), carboplatin (NSC241240), KSQ-4279 (NSC840948), and staurosporine (NSC755774) were obtained from the National Cancer Institute (NCI) Developmental Therapeutics Program Chemical Repository (34). The FDA-approved anticancer drug set is available from the NCI Developmental Therapeutics Program. […] The stock solutions were prepared in dimethyl sulfoxide (DMSO, Sigma-Aldrich, St. Louis, MO, cat. D2650) at 800-fold the tested concentration and stored at -70 degrees C prior to their use. All drugs and investigational agents were tested over a range starting from a high concentration at or near the clinical Cmax and decreasing in half-log increments. If the clinical Cmax for an agent had not been determined, the highest concentration tested was 10 microM.
2.3 Cell Culture. All cells were maintained in an incubator at 37 degrees C and 5% CO2 with 95% humidity. The PDC lines were cultured according to standard operating procedures established by the NCI PDMR. All PDCs were thawed and cultured in Matrigel-coated flasks prepared with a working solution of 1X Ham's F-12 nutrient mix, without supplementation (Invitrogen, cat. 11765054), 100 U/mL penicillin-streptomycin (Invitrogen, cat. 15140122), and 2.5% Matrigel (Corning Inc., cat. 354248) for the first three passages. The 857933-349-R-J2-PDC line was cultured in 6C/Colon 1B media, which includes advanced DMEM/F-12 (Thermo Fisher Scientific, cat. 12634028), 10 mM HEPES (Thermo Fisher Scientific, cat. 15630080), 1X GlutaMAX supplement (Thermo Fisher Scientific, cat. 35050061), 0.1 mg/mL primocin (InvivoGen, cat. ant-pm-2), 10% defined fetal bovine serum, heat inactivated (HyClone Laboratories Inc., cat. SH30070.03HI), 50% L-WRN conditioned media (ATCC, cat. CRL-3276), 1.25 mM N-Acetyl-L-cysteine (Sigma-Aldrich, cat. A9165), 10 mM nicotinamide (Sigma-Aldrich, cat. N0636), 1X B-27 supplement (Thermo Fisher Scientific, cat. 17504044), 1X N-2 supplement (Thermo Fisher Scientific, cat. 17502048), 10 microM Y-27632 dihydrochloride (Tocris Bioscience, cat. 1254), and 50 ng/mL human EGF recombinant protein (Thermo Fisher Scientific, cat. PHG0311). The 485176-168-R4-J1-PDC line was cultured in Panc media, which includes all 6C/Colon 1B media components plus 100 ng/mL human FGF-10 (Thermo Fisher Scientific, cat. 100-26), 500 nM SB-431542 (Selleckchem, cat. S1067), and gastrin (Tocris, cat. 3006).
[…]

Values joined by “and” are separate entries in the source; they are usually repeats but may differ in a detail not shown here. Equal values may be shown once.

The source of these data is PubChem BioAssay AID2060498 (Molecular Pharmacology Branch, DTP, NCI, 2025).
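Further: spheroids exposed to compounds for 7 days.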

A word on the IC50: it is the concentration that inhibits the measured activity by half. As usually defined, the viability, T/C is the ratio of treated to control. As for `Cc1[nH]c2ccccc2c1CCNCc1ccc(/C=C/C(=O)NO)cc1` + Cc1cnc(CNC(=O)c2c(=O)c3ccc(N4CCCN(C)CC4)nc3n3c2sc2ccccc23)cn1, the IC50 reads like this: (curve of first compound, second compound 0.0316 µM) 43.3 nM; (curve of first compound, second compound 0.1 µM) 47.5 nM; (curve of first compound, second compound 0.316 µM) 43.4 nM; (curve of first compound, second compound 1 µM) 46 nM; (curve of first compound, second compound 3.16 µM) 37.2 nM; (curve of first compound, second compound 10 µM) 37.6 nM. Besides, the viability, T/C (second compound 0.0316 µM, first compound 0.000999 µM) was 108%; the viability, T/C (second compound 0.0316 µM, first compound 0.00316 µM) was 89.9%; the viability, T/C (second compound 0.0316 µM, first compound 0.00999 µM) is 81.7%; the viability, T/C (second compound 0.0316 µM, first compound 0.0316 µM) is 61.3%; the viability, T/C (second compound 0.0316 µM, first compound 0.0999 µM) is 26.1%; the viability, T/C (second compound 0.0316 µM, first compound 0.316 µM) is 0.61%. Further, the viability, T/C was 89.1% (second compound 0.1 µM, first compound 0.000999 µM); 75.4% (second compound 0.1 µM, first compound 0.00316 µM); 69.1% (second compound 0.1 µM, first compound 0.00999 µM); 66.9% (second compound 0.1 µM, first compound 0.0316 µM); 24.9% (second compound 0.1 µM, first compound 0.0999 µM); 0.91% (second compound 0.1 µM, first compound 0.316 µM). The viability, T/C by setting is: (second compound 0.316 µM, first compound 0.000999 µM) 75.3%; (second compound 0.316 µM, first compound 0.00316 µM) 71.1%; (second compound 0.316 µM, first compound 0.00999 µM) 71.2%; (second compound 0.316 µM, first compound 0.0316 µM) 58.9%; (second compound 0.316 µM, first compound 0.0999 µM) 26.6%; (second compound 0.316 µM, first compound 0.316 µM) 0.83%. The viability, T/C is, setting by setting: (second compound 1 µM, first compound 0.000999 µM) 71.9%; (second compound 1 µM, first compound 0.00316 µM) 61.2%; (second compound 1 µM, first compound 0.00999 µM) 64%; (second compound 1 µM, first compound 0.0316 µM) 62.9%; (second compound 1 µM, first compound 0.0999 µM) 23.4%; (second compound 1 µM, first compound 0.316 µM) 0.22%. The viability, T/C is, setting by setting: (second compound 3.16 µM, first compound 0.000999 µM) 60.9%; (second compound 3.16 µM, first compound 0.00316 µM) 57.4%; (second compound 3.16 µM, first compound 0.00999 µM) 67.8%; (second compound 3.16 µM, first compound 0.0316 µM) 55.9%; (second compound 3.16 µM, first compound 0.0999 µM) 12.2%; (second compound 3.16 µM, first compound 0.316 µM) 0.93%. The viability, T/C reads like this: (second compound 10 µM, first compound 0.000999 µM) 57.4%; (second compound 10 µM, first compound 0.00316 µM) 61.3%; (second compound 10 µM, first compound 0.00999 µM) 57.1%; (second compound 10 µM, first compound 0.0316 µM) 58.1%; (second compound 10 µM, first compound 0.0999 µM) 3.88%; (second compound 10 µM, first compound 0.316 µM) 0.37%.
With `CN(C)c1ccc(Nc2c3ccc(NC(=O)CCN4CCCC4)cc3nc3cc(NC(=O)CCN4CCCC4)ccc23)cc1`, the viability, T/C by setting is: (compound 0.0316 µM) 97.6% [middle of 12 runs]; (compound 0.1 µM) 99.5% [middle of 12 runs]; (compound 1 µM) 20% [middle of 12 runs]; (compound 3.16 µM) 1.98% [middle of 11 runs]; (compound 10 µM) 0.43% [middle of 12 runs]. Moreover, the IC50 (compound alone, run of 02/26/2024) is 548 nM [middle of 12 runs].
As for `O=C(NO)c1cnc(N2CCN(S(=O)(=O)c3ccc4ccccc4c3)CC2)nc1`, the viability, T/C was 77.1% and 89.5% and 81.1% (compound 0.0316 µM); 74% and 76.3% and 64.2% (compound 0.1 µM); 44.3% and 39.6% and 41.4% (compound 0.316 µM); 0.86% and 0.61% and 2.4% (compound 1 µM); 0.14% and 0.11% and 0.19% (compound 3.16 µM); 0.33% and 0.21% and 0.18% (compound 10 µM). The IC50 (curve of compound) was 255 nM and 224 nM and 201 nM.
For `C#Cc1c(F)ccc2cc(O)cc(-c3ncc4c(N5CC6CCC(C5)N6)nc(OCC56CCCN5CC(F)C6)nc4c3F)c12` (configuration not stated), the viability, T/C (compound 0.0316 µM) is 91.1% and 86.6% and 83.5%; the viability, T/C (compound 0.1 µM) is 72.5% and 68.7% and 74.1%; the viability, T/C (compound 0.316 µM) is 55.5% and 61.2% and 55.2%; the viability, T/C (compound 1 µM) was 41.4% and 38% and 36.8%; the viability, T/C (compound 3.16 µM) was 29.1% and 29.3% and 26.5%; the viability, T/C (compound 10 µM) is 24.5% and 6.82% and 10.6%. Further, for the setting “curve of compound”, the IC50 is 478 nM and 552 nM and 475 nM.
